Reference: patent US20260356860A1, “2-SUBSTITUTED 3,4A,5,7,8,8A-HEXAHYDRO-4H-THIOPYRANO[4,3-DJPYRIMIDIN-4-ONES FOR WOUND TREATMENT” (priority 2022, published 2026)

What was measured:
healed wound sites = experiment: Physical properties of healed wounds, summary; type: in vivo, porcine; details: compared to the control
Description: (§1) Additional tests were performed including elasticity (Table 12); max force (Table 13); tensile strength (strain) (Table 14); energy peak (Table 15); rete-ridge formation; and collagen organization (plane polarized light) (FIG. 24) of the healed wound sites, described as follows.
Wounds treated with 0.9% saline provided the least wound healing integrity for elasticity, max force, strain, and energy peak parameters.

closed excisional wounds = experiment: Collagen organization (plane polarized light) of closed excisional wounds; type: in vivo, Yucatan Miniature Swine
Description: as §1
Regarding collagen organization, the number of wounds indicating collagen infiltration into the scar were identified by polarized imaging (plane polarized light).

[1] = system: C. acnes (derived from ATCC ® 11827 ™); experiment: Bacteriostasis, log reduction; type: cell-based
[2] = system: Full-thickness, 3rd degree burn wounds; experiment: 3rd degree burn wound healing study (60-day); type: in vivo, Yucatan minipig; details: for burn wound healing rate versus saline control: about day 16 to day 30; for burn wound histology (H&E) versus saline and GO-HA: improved organized reticular collagen and rete ridge formation
Description: The test composition in the closed excisional wound and burn studies for compounds without GO-HA (no GO-HA added) was a mixture with an overall concentration of 0.20 to 0.25 mg/mL of the respective compound in serum formulation as follows: compound (4 mg), butylene glycol (0.80 mL), polysorbate 20 (0.40 mL), ultra pure water (18 mL), and hydroxypropyl cellulose (0.12 g).
The test composition in the closed excisional wound and burn studies for compounds with GO-HA (Compound+GO-HA) was a mixture with an overall concentration of 1.0 mg/mL of the respective compound and 0.5 mg/mL of GO-HA in serum formulation as follows: compound (18 mg), PEG 400 (0.8 mL), GO-HA (9 mg), ultra pure water (18 mL), and hydroxypropyl cellulose (0.12 g).
Full-thickness 60-day burn wound healing study. Full-thickness, 3rd degree burn wounds of 3×3 cm^2 size were created on the back of the Yucatan minipig (5 wounds on each side of the spine, 10 total per swine) by using a brass cylinder (circular cross-section, 3 cm diameter) that was preheated in an oven at 100° C. and applied to the dorsal skin with light pressure for 30 seconds. Debridement of the wounds occurred day 7 post-dose. Compounds were dosed topically three times a week (0.24 mL) for thirty days. At 30 day time-point, the wounds were photographed once a week and NO dosing of compounds conducted from day 31-60. On day 60 animals were sacrificed and tissue prepared for analysis.

O=c1[nH]c(-c2ccc(-c3ccc(B(O)O)cc3)cc2)nc2c1CSCC2 [Compound 10, (4′-(4-oxo-3,5,7,8-tetrahydro-4H-thiopyrano[4,3-d]pyrimidin-2-yl)-[1,1′-biphenyl]-4-yl)boronic acid]
wound healing integrity (physical properties of the healed wound site) (healed wound sites): greatest wound healing integrity
number of wounds indicating collagen infiltration into the scar (closed excisional wounds): 7 wounds

COC(=O)NCCOC(C)(C)c1ccc(-c2nc3c(c(=O)[nH]2)CSCC3)cc1 [Compound 18, methyl (2-((2-(4-(4-oxo-3,5,7,8-tetrahydro-4H-thiopyrano[4,3-d]pyrimidin-2-yl)phenyl)propan-2-yl)oxy)ethyl)carbamate]
Average result ([1]; 24 h): 10.7 × 10^4
Log Reduction ([1]; 24 h): 0.7
Log Value ([1]; 24 h): 4.2
Average result ([1]; 72 h): 6.5 × 10^3
Log Reduction ([1]; 72 h): 1.1
Log Value ([1]; 72 h): 3.8

CC(C)(OCCO)c1ccc(-c2nc3c(c(=O)[nH]2)CSCC3)cc1 [Compound 8, 2-(4-(2-(2-hydroxyethoxy)propan-2-yl)phenyl)-3,5,7,8-tetrahydro-4H-thiopyrano[4,3-d]pyrimidin-4-one]
burn wound healing rate versus saline control [2]: statistically significant improved burn wound healing rates
burn wound histology (H&E) versus saline and GO-HA [2]: promoted regeneration of tissue (improved organized reticular collagen and rete ridge formation) and reduced scar formation

O=c1[nH]c(-c2ccc(-c3ccc(Br)nc3)cc2)nc2c1CSCC2 [Compound 7, 2-(4-(6-bromopyridin-3-yl)phenyl)-3,5,7,8-tetrahydro-4H-thiopyrano [4,3-d]pyrimidin-4-one]
burn wound healing rate versus saline control [2]: statistically significant improved burn wound healing rates
burn wound histology (H&E) versus saline and GO-HA [2]: promoted regeneration of tissue (improved organized reticular collagen and rete ridge formation) and reduced scar formation
